Assay results as given in patent publication US7964724B2, “Chiral cis-imidazolines” (Hoffmann-La Roche Inc., priority 2004, dated 2011).
Where a name gives a salt, the structure may show the parent alone.

Target: interaction between p53 and MDM2 proteins (recombinant GST-tagged MDM2 / biotinylated p53-peptide) (Homo sapiens, UniProt Q00987)
Assay: HTRF assay of inhibition of the p53-MDM2 interaction (In Vitro Activity Assay)
Assay type: binding
Description: The ability of the compounds to inhibit the interaction between p53 and MDM2 proteins was measured by an HTRF (homogeneous time-resolved fluorescence) assay in which recombinant GST-tagged MDM2 binds to a peptide that resembles the MDM2-interacting region of p53 (Lane et al.). Binding of GST-MDM2 protein and p53-peptide (biotinylated on its N-terminal end) is registered by the FRET (fluorescence resonance energy transfer) between Europium (Eu)-labeled anti-GST antibody and streptavidin-conjugated Allophycocyanin (APC). Test is performed in black flat-bottom 384-well plates (Costar) in a total volume of 40 uL containing: 90 nM biotinylate peptide, 160 ng/ml GST-MDM2, 20 nM streptavidin-APC (PerkinElmerWallac), 2 nM Eu-labeled anti-GST-antibody (PerkinElmerWallac), 0.2% bovine serum albumin (BSA), 1 mM dithiothreitol (DTT) and 20 mM […] (TBS) buffer as follows: Add 10 uL of GST-MDM2 (640 ng/ml working solution) in reaction buffer to each well. Add 10 uL dilution compounds (1:5 dilution in reaction buffer) to each well, mix by shaking, Add 20 uL biotinylated p53 peptide (180 nM working solution) in reaction buffer to each well and mix on shaker. Incubate at 37° C. for 1 h. Add 20 uL streptavidin-APC and Eu-anti-GST antibody mixture (6 nM Eu-anti-GST and 60 nM streptavidin-APC working solution) in TBS buffer with 0.2% BSA, shake at room temperature for 30 minutes and read using a TRF-capable plate reader at 665 and 615 nm (Victor 5, Perkin ElmerWallac). If not specified, the reagents were purchased from Sigma Chemical Co.

Chain of interaction between p53 and MDM2 proteins (recombinant GST-tagged MDM2 / biotinylated p53-peptide) (Q00987 whole entry): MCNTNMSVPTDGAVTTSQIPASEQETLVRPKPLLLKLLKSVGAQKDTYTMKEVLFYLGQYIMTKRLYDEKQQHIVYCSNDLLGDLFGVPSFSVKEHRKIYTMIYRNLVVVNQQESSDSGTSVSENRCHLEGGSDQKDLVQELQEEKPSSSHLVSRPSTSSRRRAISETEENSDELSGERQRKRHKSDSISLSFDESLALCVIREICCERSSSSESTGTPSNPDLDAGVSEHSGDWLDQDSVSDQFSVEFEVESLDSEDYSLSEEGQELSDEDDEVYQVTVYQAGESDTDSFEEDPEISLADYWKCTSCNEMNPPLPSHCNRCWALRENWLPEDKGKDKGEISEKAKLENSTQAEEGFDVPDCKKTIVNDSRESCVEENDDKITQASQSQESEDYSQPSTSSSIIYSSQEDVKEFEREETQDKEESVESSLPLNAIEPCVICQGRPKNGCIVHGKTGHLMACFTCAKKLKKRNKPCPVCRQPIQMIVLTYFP

Point of comparison: `CCOc1cc(C(C)(C)C)ccc1C1=N[C@@H](c2ccc(F)cc2)[C@@H](c2ccc(F)cc2)N1C(=O)N1CCN(CCS(C)(=O)=O)CC1` [Example 26, [(4S,5R)-2-(4-tert-Butyl-2-ethoxy-phenyl)-4,5-bis-(4-fluoro-phenyl)-4,5-dihydro-imidazol-1-yl]-[4-(2-methanesulfonyl-ethyl)-piperazin-1-yl]-methanone hydrochloride], IC50 60 nM. Against it:
- CCOc1cc(C(C)(C)C)ccc1C1=N[C@@H](c2ccc(F)cc2)[C@@H](c2ccc(F)cc2)N1C(=O)N1CCNC(=O)C1 [Example 27, 4-[(4S,5R)-2-(4-tert-Butyl-2-ethoxy-phenyl)-4,5-bis-(4-fluoro-phenyl)-4,5-dihydro-imidazole-1-carbonyl]-piperazin-2-one hydrochloride] — 52-fold higher, 3100 nM
- C#Cc1ccc([C@@H]2[C@H](c3ccc(C#C)cc3)N=C(c3ccc(C(C)(C)C)cc3OCC)N2C(=O)N2CCN(CCS(C)(=O)=O)CC2)cc1 [Example 35, [(4S,5R)-2-(4-tert-Butyl-2-ethoxy-phenyl)-4,5-bis-(4-ethynyl-phenyl)-4,5-dihydro-imidazol-1-yl]-[4-(2-methanesulfonyl-ethyl)-piperazin-1-yl]-methanone hydrochloride] — 5.5-fold lower, 11 nM
- CCOc1cc(C(C)(C)C)ccc1C1=N[C@@H](c2ccc(Cl)cc2)[C@@H](c2ccc(Cl)cc2)N1C(=O)N1CCC(N2CCCC2)CC1 [Example 74, [(4S,5R)-2-(4-tert-Butyl-2-ethoxy-phenyl)-4,5-bis-(4-chloro-phenyl)-4,5-dihydro-imidazol-1-yl]-(4-pyrrolidin-1-yl-piperidin-1-yl)-methanone hydrochloride] — 2.5-fold lower, 24 nM
